According to US10071082B2, “Antimicrobial agents” (Rutgers, The State University of New Jersey, priority 2013, dated 2018):
≈ marks a conversion by molar mass, not a printed value.

What was measured:
[1] = system: S. aureus ATCC 43300 (MRSA); assay: Test D in vivo efficacy, mouse peritonitis model of systemic infection; settings: mice, p.o.
MSSA = assay: Test A antibacterial assay, broth microdilution MIC; type: cell-based; settings: Staphylococcus aureus, read-out: MIC MSSA
Description: (§1) Antibacterial activity can be determined as per Clinical and Laboratory Standards Institute (CLSI) guidelines using a broth microdilution assay in which log-phase bacteria are grown at 37° C. in appropriate medium containing two-fold serial dilutions of a compound to yield final concentrations ranging from 256 to 0.06 μg/mL. For determination of minimal inhibitory concentration (MIC) values, bacterial growth is monitored after 24 to 48 hours by measuring optical density at 600 nm.

MRSA = assay: as above; type: cell-based; settings: Staphylococcus aureus, read-out: MIC MRSA
Description: as §1

[2] = system: S. aureus ATCC 19636 (MSSA); assay: Test D in vivo efficacy, mouse peritonitis model of systemic infection; settings: mice

`CN1CCC(C(=O)NC(=O)c2c(F)ccc(OCc3nc4cc(Cl)cnc4s3)c2F)CC1` [Example 17] was tested, and the “Survival (%)” value ([1]; 3x, total dose 2.4 mg/mouse, first dose 5 minutes prior to infection, 24 Hrs) was 66.7%, the “Survival (%)” value ([1]; 3x, total dose 2.4 mg/mouse, first dose 5 minutes prior to infection, 48 Hrs) was 16.7% and the “Survival (%)” value ([1]; 3x, total dose 2.4 mg/mouse, first dose 5 minutes prior to infection, 72 Hrs) was 16.7%. For the same compound, the “Survival (%)” value ([1]; 6x, total dose 4.8 mg/mouse, 24 Hrs) was 83.3%, the “Survival (%)” value ([1]; 6x, total dose 4.8 mg/mouse, 48 Hrs) was 50% and the “Survival (%)” value ([1]; 6x, total dose 4.8 mg/mouse, 72 Hrs) was 50%. The “Survival (%)” value ([1]; 6x, total dose 4.8 mg/mouse, first dose 5 minutes prior to infection, 24 Hrs) was 100%, the “Survival (%)” value ([1]; 6x, total dose 4.8 mg/mouse, first dose 5 minutes prior to infection, 48 Hrs) was 100% and the “Survival (%)” value ([1]; 6x, total dose 4.8 mg/mouse, first dose 5 minutes prior to infection, 72 Hrs) was 100%. For the same compound, the “Survival (%)” value ([1]; 6x, total dose 4.8 mg/mouse, first dose 10 minutes post-infection, 24 Hrs) was 100%, the “Survival (%)” value ([1]; 6x, total dose 4.8 mg/mouse, first dose 10 minutes post-infection, 48 Hrs) was 100% and the “Survival (%)” value ([1]; 6x, total dose 4.8 mg/mouse, first dose 10 minutes post-infection, 72 Hrs) was 100%. The MIC (MSSA) was 2 mg/L (≈ 4.16 µM), the MIC (MRSA) was 4 mg/L (≈ 8.32 µM) and the “Survival (%)” value ([2]; i.v., 1x, total dose 0.6 mg/mouse, first dose immediately prior to infection, 24 Hrs) was 0%. The “Survival (%)” value ([2]; i.v., 1x, total dose 0.6 mg/mouse, first dose immediately prior to infection, 48 Hrs) was 0%, the “Survival (%)” value ([2]; i.v., 1x, total dose 0.6 mg/mouse, first dose immediately prior to infection, 72 Hrs) was 0% and the “Survival (%)” value ([2]; i.v., 2x, total dose 1.2 mg/mouse, first dose immediately prior to infection, 24 Hrs) was 0%. For the same compound, the “Survival (%)” value ([2]; i.v., 2x, total dose 1.2 mg/mouse, first dose immediately prior to infection, 48 Hrs) was 0%, the “Survival (%)” value ([2]; i.v., 2x, total dose 1.2 mg/mouse, first dose immediately prior to infection, 72 Hrs) was 0% and the “Survival (%)” value ([2]; i.v., 3x, total dose 1.8 mg/mouse, first dose immediately prior to infection, 24 Hrs) was 33.3%. The “Survival (%)” value ([2]; i.v., 3x, total dose 1.8 mg/mouse, first dose immediately prior to infection, 48 Hrs) was 33.3%, the “Survival (%)” value ([2]; i.v., 3x, total dose 1.8 mg/mouse, first dose immediately prior to infection, 72 Hrs) was 33.3% and the “Survival (%)” value ([2]; i.v., 4x, total dose 2.4 mg/mouse, first dose immediately prior to infection, 24 Hrs) was 83.3%. The “Survival (%)” value ([2]; i.v., 4x, total dose 2.4 mg/mouse, first dose immediately prior to infection, 48 Hrs) was 83.3%, the “Survival (%)” value ([2]; i.v., 4x, total dose 2.4 mg/mouse, first dose immediately prior to infection, 72 Hrs) was 83.3% and the “Survival (%)” value ([2]; p.o., 1x, total dose 0.8 mg/mouse, first dose 5 minutes prior to infection, 24 Hrs) was 0%. For the same compound, the “Survival (%)” value ([2]; p.o., 1x, total dose 0.8 mg/mouse, first dose 5 minutes prior to infection, 48 Hrs) was 0%, the “Survival (%)” value ([2]; p.o., 1x, total dose 0.8 mg/mouse, first dose 5 minutes prior to infection, 72 Hrs) was 0% and the “Survival (%)” value ([2]; p.o., 2x, total dose 1.6 mg/mouse, first dose 5 minutes prior to infection, 24 Hrs) was 0%. For the same compound, the “Survival (%)” value ([2]; p.o., 2x, total dose 1.6 mg/mouse, first dose 5 minutes prior to infection, 48 Hrs) was 0%, the “Survival (%)” value ([2]; p.o., 2x, total dose 1.6 mg/mouse, first dose 5 minutes prior to infection, 72 Hrs) was 0% and the “Survival (%)” value ([2]; p.o., 4x, total dose 3.2 mg/mouse, 24 Hrs) was 83.3%. The “Survival (%)” value ([2]; p.o., 4x, total dose 3.2 mg/mouse, 48 Hrs) was 83.3%, the “Survival (%)” value ([2]; p.o., 4x, total dose 3.2 mg/mouse, 72 Hrs) was 83.3% and the “Survival (%)” value ([2]; p.o., 4x, total dose 3.2 mg/mouse, first dose 5 minutes prior to infection, 24 Hrs) was 100%. For the same compound, the “Survival (%)” value ([2]; p.o., 4x, total dose 3.2 mg/mouse, first dose 5 minutes prior to infection, 48 Hrs) was 100% and the “Survival (%)” value ([2]; p.o., 4x, total dose 3.2 mg/mouse, first dose 5 minutes prior to infection, 72 Hrs) was 100%.

`CN1CCC(C(=O)NC(=O)c2c(F)ccc(OCc3nc4cc(C(F)(F)F)cnc4s3)c2F)CC1` [Example 44] was tested, and the MIC (MSSA) was 0.5 mg/L (≈ 0.972 µM), the MIC (MRSA) was 2 mg/L (≈ 3.89 µM) and the “Survival (%)” value ([2]; i.v., 1x, total dose 0.9 mg/mouse, 24 Hrs) was 83.3%. For the same compound, the “Survival (%)” value ([2]; i.v., 1x, total dose 0.9 mg/mouse, 48 Hrs) was 83.3%, the “Survival (%)” value ([2]; i.v., 1x, total dose 0.9 mg/mouse, 72 Hrs) was 83.3% and the “Survival (%)” value ([2]; i.v., 2x, total dose 1.8 mg/mouse, 24 Hrs) was 100%. For the same compound, the “Survival (%)” value ([2]; i.v., 2x, total dose 1.8 mg/mouse, 48 Hrs) was 100%, the “Survival (%)” value ([2]; i.v., 2x, total dose 1.8 mg/mouse, 72 Hrs) was 100% and the “Survival (%)” value ([2]; p.o., 1x, total dose 0.8 mg/mouse, 24 Hrs) was 50%. For the same compound, the “Survival (%)” value ([2]; p.o., 1x, total dose 0.8 mg/mouse, 48 Hrs) was 50%, the “Survival (%)” value ([2]; p.o., 1x, total dose 0.8 mg/mouse, 72 Hrs) was 50% and the “Survival (%)” value ([2]; p.o., 2x, total dose 1.6 mg/mouse, 24 Hrs) was 100%. The “Survival (%)” value ([2]; p.o., 2x, total dose 1.6 mg/mouse, 48 Hrs) was 100%, the “Survival (%)” value ([2]; p.o., 2x, total dose 1.6 mg/mouse, 72 Hrs) was 100% and the “Survival (%)” value ([2]; p.o., 3x, total dose 2.4 mg/mouse, 24 Hrs) was 100%. For the same compound, the “Survival (%)” value ([2]; p.o., 3x, total dose 2.4 mg/mouse, 48 Hrs) was 100%, the “Survival (%)” value ([2]; p.o., 3x, total dose 2.4 mg/mouse, 72 Hrs) was 100% and the “Survival (%)” value ([2]; p.o., 4x, total dose 3.2 mg/mouse, n/group 4, 24 Hrs) was 100%. The “Survival (%)” value ([2]; p.o., 4x, total dose 3.2 mg/mouse, n/group 4, 48 Hrs) was 100% and the “Survival (%)” value ([2]; p.o., 4x, total dose 3.2 mg/mouse, n/group 4, 72 Hrs) was 100%.
